ChEMBL document CHEMBL1201862, “PubChem BioAssay data set” (2004)
Calls of active or inactive are those of the source.

Columns and labels:
cells [1] = type: functional, cell-based
cells [2] = type: functional, cell-based; remark: listed apart in the source
[3] = cytotoxicity in HEK-293T cells, dose response, cytotoxicity control for BCR NF-kB inhibitor project, luminescence, B-cell screen hits (AID 489021); type: functional, cell-based;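 further: HEK-293T cells carrying an NF-kB luciferase reporter; cells exposed to compound for about 14 hours before viability readout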
[4] = molecular target: T1, Short transient receptor potential channel 4 (Mus musculus, UniProt Q9QUQ5); experiment: mouse TRPC4 channel inhibitors, dose response, cell-based, HEK293 TRPC4/mu-opioid, Fluo-4 calcium (AID 434942); type: functional;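 further: potency of inhibitors blocking the TRPC4 calcium response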
T1 sequence (Q9QUQ5 whole entry): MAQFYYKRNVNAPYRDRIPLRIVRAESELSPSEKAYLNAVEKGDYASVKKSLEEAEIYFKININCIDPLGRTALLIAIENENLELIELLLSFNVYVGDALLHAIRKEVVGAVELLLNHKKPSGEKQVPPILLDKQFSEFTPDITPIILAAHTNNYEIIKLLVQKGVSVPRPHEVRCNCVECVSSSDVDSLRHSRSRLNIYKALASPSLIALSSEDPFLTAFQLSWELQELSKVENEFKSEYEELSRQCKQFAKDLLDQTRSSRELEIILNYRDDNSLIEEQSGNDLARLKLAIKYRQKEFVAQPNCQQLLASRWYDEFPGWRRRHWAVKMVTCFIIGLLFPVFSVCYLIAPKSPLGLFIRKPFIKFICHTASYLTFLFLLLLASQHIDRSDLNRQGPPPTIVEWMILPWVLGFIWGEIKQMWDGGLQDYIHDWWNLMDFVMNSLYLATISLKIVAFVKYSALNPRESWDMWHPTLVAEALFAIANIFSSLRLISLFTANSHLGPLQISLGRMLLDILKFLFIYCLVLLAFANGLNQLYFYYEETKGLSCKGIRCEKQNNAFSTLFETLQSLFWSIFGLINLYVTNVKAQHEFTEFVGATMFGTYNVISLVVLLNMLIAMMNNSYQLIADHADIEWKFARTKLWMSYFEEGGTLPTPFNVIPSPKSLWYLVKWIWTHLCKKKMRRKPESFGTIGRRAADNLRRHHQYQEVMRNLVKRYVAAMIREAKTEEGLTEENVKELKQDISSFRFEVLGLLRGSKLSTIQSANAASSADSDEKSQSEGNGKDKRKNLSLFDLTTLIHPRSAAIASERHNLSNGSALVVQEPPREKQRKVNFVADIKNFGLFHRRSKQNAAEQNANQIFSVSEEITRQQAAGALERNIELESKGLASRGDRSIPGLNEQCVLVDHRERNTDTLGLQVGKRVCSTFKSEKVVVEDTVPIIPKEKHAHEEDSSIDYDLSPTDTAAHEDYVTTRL

Protein Wnt-3a = Protein Wnt-3a (Mus musculus, UniProt P27467); experiment: Wnt3a-driven reporter signaling inhibition, dose response, selectivity assay for Gli-SUFU antagonist project, Wnt-LIGHT cells, luminescence (AID 651570); type: functional; conditions: read-out: IC50_Mean;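 further: Wnt-LIGHT reporter cells stimulated with conditioned medium from Wnt3a-producing cells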
BJ [5] = experiment: cytotoxicity toward BJ-TERT fibroblasts, dose response, cell-based, RAS-independent, luminescence (AID 1933); type: functional; conditions: Homo sapiens
BJ [6] = experiment: cells; type: functional, cell-based; conditions: Homo sapiens
[7] = inhibitors of intracellular T. cruzi replication, confirmation, NIH3T3 host cells, beta-gal luminescence (AID 2044); type: functional, cell-based;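 further: intracellular parasites grown in NIH/3T3 mouse fibroblasts as host cells; luminescent beta-galactosidase reporter signal from transgenic T. cruzi replicating inside host cells; inhibitors lower the luminescence signal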
[8] = cytotoxicity toward NIH3T3 fibroblasts, dose response, counter-screen, cell-based, ATP luminescence, mouse fibroblasts (AID 2010); type: functional;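 further: cells exposed to compound for about 90 hours before reading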
BJ [9] = experiment: cytotoxicity toward BJ-TERT-LT-ST fibroblasts, dose response, cell-based, RAS-independent, luminescence (AID 1935); type: functional; conditions: Homo sapiens;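 further: BJ fibroblasts immortalized with TERT plus LT and ST oncogenes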
[10] = cytotoxicity toward DRD oncogenic fibroblasts, dose response, cell-based, non-viral oncogenic, luminescence (AID 1934); type: functional; conditions: Homo sapiens
INS1 = experiment: beta cell apoptosis inhibitors, cytokine rescue, dose response, luminescence, retest (AID 449756); type: functional, cell-based; conditions: Rattus norvegicus;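 further: cell death triggered by IL-1 beta plus TNF-alpha plus IFN-gamma mixture; protective hits raise ATP signal compared with cytokine alone wells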
[11] = molecular target: T2, Corticotropin-releasing factor receptor 2/Corticotropin-releasing factor-binding protein (Homo sapiens, UniProt P24387+Q13324); experiment: Dose Response confirmation of uHTS hits for small molecule antagonists of the CRF-binding protein and CRF-R2 receptor complex.; type: functional; conditions: read-out: IC50_Mean
T2 sequence (Q13324 whole entry): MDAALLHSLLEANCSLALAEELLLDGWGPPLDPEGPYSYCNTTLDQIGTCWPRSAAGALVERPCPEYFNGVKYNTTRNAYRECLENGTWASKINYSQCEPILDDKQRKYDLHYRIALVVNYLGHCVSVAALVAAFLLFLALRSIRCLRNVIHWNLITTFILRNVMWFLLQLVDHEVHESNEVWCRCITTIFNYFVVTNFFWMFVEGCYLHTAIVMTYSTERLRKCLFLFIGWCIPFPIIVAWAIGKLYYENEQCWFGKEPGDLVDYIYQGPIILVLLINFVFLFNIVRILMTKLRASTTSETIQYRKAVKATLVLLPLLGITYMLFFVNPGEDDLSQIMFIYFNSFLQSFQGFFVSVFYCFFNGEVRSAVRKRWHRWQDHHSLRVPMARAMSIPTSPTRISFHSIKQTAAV
T2 sequence (P24387 whole entry): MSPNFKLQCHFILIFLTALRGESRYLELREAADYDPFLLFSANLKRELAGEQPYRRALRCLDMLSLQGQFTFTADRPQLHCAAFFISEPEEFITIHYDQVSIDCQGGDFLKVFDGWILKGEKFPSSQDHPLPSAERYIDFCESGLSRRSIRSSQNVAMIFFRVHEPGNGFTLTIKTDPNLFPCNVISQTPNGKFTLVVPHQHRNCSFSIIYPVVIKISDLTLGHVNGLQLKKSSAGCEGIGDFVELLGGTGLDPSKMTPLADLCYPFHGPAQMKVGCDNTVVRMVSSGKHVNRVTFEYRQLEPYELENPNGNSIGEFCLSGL

[12] = molecular target: T2, Corticotropin-releasing factor receptor 2/Corticotropin-releasing factor-binding protein; experiment: activators of CRF receptor 2 with binding protein – uHTS hits, confirmation (AID 602473); type: functional; conditions: read-out: EC50_Mean
[13] = molecular target: T3, Histone-lysine N-methyltransferase NSD2 (Homo sapiens, UniProt O96028); type: biochemical
T3 sequence (O96028 whole entry): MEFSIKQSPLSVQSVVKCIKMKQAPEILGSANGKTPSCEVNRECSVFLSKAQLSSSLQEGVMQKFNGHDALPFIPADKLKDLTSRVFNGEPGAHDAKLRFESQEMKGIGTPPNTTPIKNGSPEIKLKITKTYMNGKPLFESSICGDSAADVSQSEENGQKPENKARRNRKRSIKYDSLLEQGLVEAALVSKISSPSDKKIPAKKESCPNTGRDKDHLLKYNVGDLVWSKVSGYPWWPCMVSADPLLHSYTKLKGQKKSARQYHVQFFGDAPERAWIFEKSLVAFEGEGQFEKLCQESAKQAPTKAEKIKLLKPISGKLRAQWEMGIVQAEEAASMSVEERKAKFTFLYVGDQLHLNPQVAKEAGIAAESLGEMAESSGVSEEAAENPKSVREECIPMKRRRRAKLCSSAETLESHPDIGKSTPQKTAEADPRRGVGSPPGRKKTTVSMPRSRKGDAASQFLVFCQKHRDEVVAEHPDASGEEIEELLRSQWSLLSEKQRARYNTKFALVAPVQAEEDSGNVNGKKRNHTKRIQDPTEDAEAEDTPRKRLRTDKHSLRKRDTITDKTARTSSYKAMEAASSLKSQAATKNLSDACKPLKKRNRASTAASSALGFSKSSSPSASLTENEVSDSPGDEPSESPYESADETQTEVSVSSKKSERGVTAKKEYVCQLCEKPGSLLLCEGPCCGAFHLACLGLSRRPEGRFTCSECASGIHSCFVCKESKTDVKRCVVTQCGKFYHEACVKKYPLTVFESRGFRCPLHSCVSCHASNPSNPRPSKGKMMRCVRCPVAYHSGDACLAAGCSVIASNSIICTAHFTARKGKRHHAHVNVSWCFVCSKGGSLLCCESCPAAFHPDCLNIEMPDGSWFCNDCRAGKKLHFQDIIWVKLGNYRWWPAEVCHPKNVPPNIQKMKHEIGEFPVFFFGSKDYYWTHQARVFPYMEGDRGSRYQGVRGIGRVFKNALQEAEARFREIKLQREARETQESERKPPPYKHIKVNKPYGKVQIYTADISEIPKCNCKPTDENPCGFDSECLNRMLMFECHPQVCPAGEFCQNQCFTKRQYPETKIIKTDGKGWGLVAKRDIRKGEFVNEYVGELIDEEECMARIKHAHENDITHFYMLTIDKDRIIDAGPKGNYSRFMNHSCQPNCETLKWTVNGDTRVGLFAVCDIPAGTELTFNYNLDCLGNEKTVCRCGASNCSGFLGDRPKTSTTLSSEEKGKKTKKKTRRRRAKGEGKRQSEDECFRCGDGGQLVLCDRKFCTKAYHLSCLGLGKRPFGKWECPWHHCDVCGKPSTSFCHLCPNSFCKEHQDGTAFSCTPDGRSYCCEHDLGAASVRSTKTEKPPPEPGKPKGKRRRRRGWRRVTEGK

Nonstructural protein 1 = Nonstructural protein 1 (Influenza A virus, UniProt Q194T2); type: functional, Influenza A virus (A/California/07/2009(H1N1))
[14] = molecular target: T4, Ubiquitin-conjugating enzyme E2 N (Homo sapiens, UniProt P61088); type: functional;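 further: Dose-response confirmation in a TR-FRET assay detecting UBC13-driven polyubiquitin chain formation, inhibition measured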
T4 sequence (P61088 whole entry): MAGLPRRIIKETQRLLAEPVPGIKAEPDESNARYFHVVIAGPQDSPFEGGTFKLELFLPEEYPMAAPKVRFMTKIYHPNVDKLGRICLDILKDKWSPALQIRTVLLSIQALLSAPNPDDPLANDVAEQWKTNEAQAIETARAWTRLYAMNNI

Sequence of Protein Wnt-3a (P27467 whole entry): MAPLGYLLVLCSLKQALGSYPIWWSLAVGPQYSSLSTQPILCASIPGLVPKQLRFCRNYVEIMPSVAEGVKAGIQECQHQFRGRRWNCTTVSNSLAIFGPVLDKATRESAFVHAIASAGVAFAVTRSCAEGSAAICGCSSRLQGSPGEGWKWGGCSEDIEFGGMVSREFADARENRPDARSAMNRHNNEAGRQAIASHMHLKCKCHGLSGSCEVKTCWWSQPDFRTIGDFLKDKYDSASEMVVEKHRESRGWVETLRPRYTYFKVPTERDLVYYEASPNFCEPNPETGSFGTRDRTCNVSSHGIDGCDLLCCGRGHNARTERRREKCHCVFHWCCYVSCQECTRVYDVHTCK
Sequence of Nonstructural protein 1 (Q194T2 whole entry): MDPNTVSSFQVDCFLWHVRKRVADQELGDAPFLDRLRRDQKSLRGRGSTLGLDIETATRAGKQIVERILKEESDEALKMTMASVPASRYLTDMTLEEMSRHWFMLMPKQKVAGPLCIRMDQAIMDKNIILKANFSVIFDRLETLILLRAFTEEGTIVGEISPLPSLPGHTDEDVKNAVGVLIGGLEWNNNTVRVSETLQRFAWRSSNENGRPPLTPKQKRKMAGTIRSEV

CSc1nc(-c2ccc(Cl)cc2)nn1S(=O)(=O)c1ccccc1
IC50 (cells [1]): > 29.9 µM (inactive)
EC50 (cells [2]): > 29.9 µM (inactive)

Cc1nn(-c2ccc(N3CCCCC3)nn2)c(C)c1CCC(=O)Nc1ccccc1F
IC50 [3]: > 80 µM (inactive)

Cc1cc(Nc2cccc(O)c2)c2ccccc2n1
EC50 [4]: 5.31 µM (active)

O=C(Nc1cccc(C(F)(F)F)c1)C1CCN(S(=O)(=O)c2ccc(N3CCCC3=O)cc2)CC1
IC50 (Protein Wnt-3a): 6.98 µM (active)

COc1ccc(-c2noc(N3CCC(C(=O)Nc4ccc(F)cc4F)CC3)n2)cc1
IC50 [3]: > 80 µM (inactive)

Cc1nn(-c2ccccc2)c2nc(C(F)(F)F)cc(O)c12
EC50 [4]: 6.68 µM (active)

N=c1c2c(n(Cc3ccc(Cl)c(Cl)c3)c3c1CCC3)CCCC2
EC50 (BJ [5]): 11.9 µM (active)
EC50 (BJ [6]): 14.1 µM (inconclusive)
EC50 [7]: 0.152 µM (active)
EC50 [8]: > 60 µM (not active)
EC50 (BJ [9]): > 150 µM (not active)
EC50 [10]: 28.9 µM (inconclusive)
IC50 [3]: > 80 µM (inactive)
AC50 (INS1): 2.78 µM (active)

N#Cc1c(Cl)nc2c(c1C#N)CCCC2
IC50 [11]: > 47.1 µM (inactive)
EC50 [12]: > 53 µM (inactive)
AC50 [13]: 11.8 µM (active)

O=C(O)C1C2C=CC(C2)C1C(=O)NCCc1cccc(Cl)c1 (centres undefined)
IC50 [11]: > 47.1 µM (inactive)
EC50 [12]: > 53 µM (inactive)
IC50 (cells [1]): > 29.9 µM (inactive)
EC50 (cells [2]): > 29.9 µM (inactive)

Cc1ccc(-c2cc(C(F)(F)F)n3nc(C(=O)N4CCN5CCCC5C4)cc3n2)cc1 (centres undefined)
AC50 [13]: 16 µM (active)

Cc1nc(CNS(=O)(=O)c2ccc3ccccc3c2)cs1
IC50 (Nonstructural protein 1): 37.7 µM (active)
IC50 [11]: > 47.1 µM (inactive)
EC50 [12]: > 53 µM (inactive)

Cc1ccsc1CNc1ncnc2ccc(-c3c(C)noc3C)cc12
IC50 [14]: > 20 µM (inactive)
IC50 (Protein Wnt-3a): 14.8 µM (active)

Cc1ccccc1C(=O)NCC(=O)NNC(=S)NC(=O)c1ccccc1C
IC50 [14]: > 20 µM (inactive)
